# Data from PubChem BioAssay AID248 (DTP/NCI, 2004).
# Values joined by “and” are separate entries in the source; they are usually repeats but may differ in a detail not shown here. Equal entries are not always repeated. Inconclusive results and toxic doses are left out.
# System: L1210 leukemia ip in BDF1 mice, survival T/C
# Experiment: NCI In Vivo Anticancer Drug Screen. Data for tumor model L1210 Leukemia (intraperitoneal) in B6D2F1 (BDF1) mice
# Conditions: endpoint: mean survival time, higher = longer survival
# Outline: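 Each compound was tested against a transplantable tumor grown in mice. The endpoint was survival, with treated animals benchmarked against vehicle controls as a simple ratio.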
# [1] = dose: 100.0 mg/kg/injection, schedule: Q01DX001 (ip), vehicle: carboxymethylcellulose (CMC)
# [2] = dose: 200.0 mg/kg/injection, schedule: Q01DX001 (ip), vehicle: carboxymethylcellulose (CMC)
# [3] = dose: 400.0 mg/kg/injection, schedule: Q01DX001 (ip), vehicle: carboxymethylcellulose (CMC)
# [4] = dose: 12.5 mg/kg/injection, schedule: Q01DX009 (ip), vehicle: gum acacia
# [5] = dose: 50.0 mg/kg/injection, schedule: Q01DX001 (ip), vehicle: carboxymethylcellulose (CMC)
# [6] = dose: 50.0 mg/kg/injection, schedule: Q01DX009 (ip), vehicle: Klucel (hydroxypropylcellulose) (HPC)
# [7] = dose: 100.0 mg/kg/injection, schedule: Q01DX009 (ip), vehicle: Klucel (hydroxypropylcellulose) (HPC)
# [8] = dose: 200.0 mg/kg/injection, schedule: Q01DX009 (ip), vehicle: Klucel (hydroxypropylcellulose) (HPC)
# [9] = dose: 100.0 mg/kg/injection, schedule: Q01DX009 (ip), vehicle: saline with Tween-80
# [10] = dose: 200.0 mg/kg/injection, schedule: Q01DX009 (ip), vehicle: saline with Tween-80
# [11] = dose: 100.0 mg/kg/injection, schedule: Q04DX003 (ip), vehicle: saline with Tween-80
smiles,measurement,setting,value
COC(=O)N1C2C3C(C)=C(C)C2(C)C3(C)S1(=O)=O (stereo not drawn),T/C,"dose: 100.0 mg/kg/injection, schedule: Q01DX001 (ip), vehicle: Klucel (hydroxypropylcellulose) (HPC)",93 % of control
same,T/C,"dose: 100.0 mg/kg/injection, schedule: Q04DX003 (ip), vehicle: Klucel (hydroxypropylcellulose) (HPC)",101 % of control
same,T/C,"dose: 200.0 mg/kg/injection, schedule: Q01DX001 (ip), vehicle: Klucel (hydroxypropylcellulose) (HPC)",93 % of control
same,T/C,"dose: 200.0 mg/kg/injection, schedule: Q04DX003 (ip), vehicle: Klucel (hydroxypropylcellulose) (HPC)",106 % of control
same,T/C,"dose: 400.0 mg/kg/injection, schedule: Q01DX001 (ip), vehicle: Klucel (hydroxypropylcellulose) (HPC)",97 % of control
CCCCCCC(=O)N(C(C)C)C(C)C,T/C,[1],100 % of control
same,T/C,"dose: 100.0 mg/kg/injection, schedule: Q01DX009 (ip), vehicle: carboxymethylcellulose (CMC)",103 % of control and 104 % of control
same,T/C,"dose: 100.0 mg/kg/injection, schedule: Q04DX002 (ip), vehicle: carboxymethylcellulose (CMC)",98 % of control and 103 % of control
same,T/C,"dose: 100.0 mg/kg/injection, schedule: Q04DX003 (ip), vehicle: carboxymethylcellulose (CMC)",104 % of control
same,T/C,[2],98 % of control
same,T/C,"dose: 200.0 mg/kg/injection, schedule: Q01DX009 (ip), vehicle: carboxymethylcellulose (CMC)",97 % of control and 100 % of control
same,T/C,"dose: 200.0 mg/kg/injection, schedule: Q04DX002 (ip), vehicle: carboxymethylcellulose (CMC)",93 % of control and 98 % of control
same,T/C,"dose: 200.0 mg/kg/injection, schedule: Q04DX003 (ip), vehicle: carboxymethylcellulose (CMC)",102 % of control
same,T/C,[3],88 % of control
same,T/C,"dose: 400.0 mg/kg/injection, schedule: Q01DX009 (ip), vehicle: carboxymethylcellulose (CMC)",93 % of control
same,T/C,"dose: 400.0 mg/kg/injection, schedule: Q04DX002 (ip), vehicle: carboxymethylcellulose (CMC)",92 % of control
ClCC1(CCl)OCCO1,T/C,"dose: 75.0 mg/kg/injection, schedule: Q01DX001 (ip), vehicle: carboxymethylcellulose (CMC)",95 % of control
same,T/C,"dose: 150.0 mg/kg/injection, schedule: Q01DX001 (ip), vehicle: carboxymethylcellulose (CMC)",104 % of control
O=[N+]([O-])c1ccccc1N=C=S,T/C,"dose: 6.25 mg/kg/injection, schedule: Q01DX009 (ip), vehicle: gum acacia",102 % of control
same,T/C,[4],98 % of control
same,T/C,"dose: 25.0 mg/kg/injection, schedule: Q01DX009 (ip), vehicle: gum acacia",97 % of control and 103 % of control
same,T/C,"dose: 25.0 mg/kg/injection, schedule: Q04DX002 (ip), vehicle: gum acacia",98 % of control
same,T/C,"dose: 50.0 mg/kg/injection, schedule: Q04DX002 (ip), vehicle: gum acacia",106 % of control
same,T/C,"dose: 100.0 mg/kg/injection, schedule: Q04DX002 (ip), vehicle: gum acacia",103 % of control
COC(=O)CCNc1ccccc1C(=O)OC,T/C,[5],100 % of control
same,T/C,[1],107 % of control
same,T/C,[2],113 % of control
same,T/C,[3],100 % of control
CC(=O)N1C(C)C1(c1ccccc1)[n+]1ccccc1 (stereo not drawn),T/C,"dose: 12.0 mg/kg/injection, schedule: Q04DX003 (ip), vehicle: saline",98 % of control
same,T/C,"dose: 12.5 mg/kg/injection, schedule: Q01DX009 (ip), vehicle: saline",101 % of control
same,T/C,"dose: 25.0 mg/kg/injection, schedule: Q01DX009 (ip), vehicle: saline",92 % of control
same,T/C,"dose: 25.0 mg/kg/injection, schedule: Q04DX003 (ip), vehicle: saline",88 % of control
same,T/C,"dose: 50.0 mg/kg/injection, schedule: Q01DX009 (ip), vehicle: saline",101 % of control
same,T/C,"dose: 50.0 mg/kg/injection, schedule: Q04DX003 (ip), vehicle: saline",104 % of control
CSC(=N)c1cccc(OCCOc2ccccc2)c1,T/C,[6],96 % of control
same,T/C,[7],102 % of control
same,T/C,[8],96 % of control
COC1/C=C/OC2(C)Oc3c(C)c(O)c4c(O)c(c(/C=N/N5C(C)CN(Cc6ccccc6)CC5C)c(O)c4c3C2=O)NC(=O)C(C)=C/C=C/C(C)C(O)C(C)C(O)C(C)C(OC(C)=O)C1C (stereo not drawn),T/C,[6],91 % of control
same,T/C,[7],93 % of control
CN(CCO)N=Nc1ccccc1C#N,T/C,"dose: 12.5 mg/kg/injection, schedule: Q01DX009 (ip), vehicle: other",103 % of control
same,T/C,"dose: 25.0 mg/kg/injection, schedule: Q01DX009 (ip), vehicle: other",91 % of control
same,T/C,"dose: 25.0 mg/kg/injection, schedule: Q04DX003 (ip), vehicle: other",95 % of control
same,T/C,"dose: 50.0 mg/kg/injection, schedule: Q04DX003 (ip), vehicle: other",93 % of control
same,T/C,"dose: 100.0 mg/kg/injection, schedule: Q04DX003 (ip), vehicle: other",95 % of control
same,T/C,"dose: 200.0 mg/kg/injection, schedule: Q04DX003 (ip), vehicle: other",98 % of control
same,T/C,"dose: 400.0 mg/kg/injection, schedule: Q04DX003 (ip), vehicle: other",98 % of control
NC(=S)N1N=C(c2cccc([N+](=O)[O-])c2)CCC1=O,T/C,[9],92 % of control
same,T/C,[10],92 % of control
same,T/C,"dose: 400.0 mg/kg/injection, schedule: Q01DX009 (ip), vehicle: saline with Tween-80",101 % of control
FCCSc1ncnc2nc[nH]c12,T/C,"dose: 20.0 mg/kg/injection, schedule: Q04DX003 (ip), vehicle: saline with Tween-80",113 % of control
same,T/C,"dose: 29.5 mg/kg/injection, schedule: Q04DX003 (ip), vehicle: saline with Tween-80",116 % of control
same,T/C,[11],159 % of control
CCCCCC(/C=N\Nc1nnc(N/N=C\C(=C\c2ccccc2)CCCCC)c2ccccc12)=C/c1ccccc1,T/C,[5],102 % of control
same,T/C,"dose: 88.0 mg/kg/injection, schedule: Q01DX001 (ip), vehicle: carboxymethylcellulose (CMC)",98 % of control
same,T/C,[1],108 % of control
same,T/C,"dose: 133.0 mg/kg/injection, schedule: Q01DX001 (ip), vehicle: carboxymethylcellulose (CMC)",101 % of control
same,T/C,[2],104 % of control and 114 % of control
same,T/C,"dose: 300.0 mg/kg/injection, schedule: Q01DX001 (ip), vehicle: carboxymethylcellulose (CMC)",102 % of control and 104 % of control
CCc1ccc(C(C)(C)C)cc1,T/C,"dose: 50.0 mg/kg/injection, schedule: Q01DX009 (ip), vehicle: saline with Tween-80",95 % of control
same,T/C,[9],95 % of control
same,T/C,[10],107 % of control
O=Cc1sc2cc[nH]c2c1O,T/C,[11],100 % of control
same,T/C,"dose: 200.0 mg/kg/injection, schedule: Q04DX003 (ip), vehicle: saline with Tween-80",97 % of control
same,T/C,"dose: 400.0 mg/kg/injection, schedule: Q04DX003 (ip), vehicle: saline with Tween-80",94 % of control
CN(C)c1ccc(/C=C/C(=O)c2ccc([N+](=O)[O-])cc2)cc1,T/C,"dose: 3.0 mg/kg/injection, schedule: Q01DX009 (ip), vehicle: gum acacia",100 % of control
same,T/C,"dose: 6.0 mg/kg/injection, schedule: Q01DX009 (ip), vehicle: gum acacia",96 % of control
same,T/C,"dose: 12.0 mg/kg/injection, schedule: Q01DX009 (ip), vehicle: gum acacia",94 % of control
same,T/C,[4],91 % of control
same,T/C,"dose: 100.0 mg/kg/injection, schedule: Q01DX009 (ip), vehicle: gum acacia",87 % of control
same,T/C,"dose: 100.0 mg/kg/injection, schedule: Q04DX003 (ip), vehicle: gum acacia",89 % of control
same,T/C,"dose: 200.0 mg/kg/injection, schedule: Q04DX003 (ip), vehicle: gum acacia",86 % of control
same,T/C,"dose: 400.0 mg/kg/injection, schedule: Q01DX009 (ip), vehicle: gum acacia",96 % of control
same,T/C,"dose: 400.0 mg/kg/injection, schedule: Q04DX003 (ip), vehicle: gum acacia",89 % of control
Cc1cc2oc(=O)c3c(c2c(O)c1CN1CCCC1)CCCC3,T/C,"dose: 100.0 mg/kg/injection, schedule: Q01DX001 (ip), vehicle: saline",92 % of control
same,T/C,"dose: 200.0 mg/kg/injection, schedule: Q01DX001 (ip), vehicle: saline",89 % of control
same,T/C,"dose: 400.0 mg/kg/injection, schedule: Q01DX001 (ip), vehicle: saline",98 % of control
COc1ccc(C(=O)CC(Sc2ccccc2N)c2ccc(OC)cc2)cc1 (stereo not drawn),T/C,[7],87 % of control
same,T/C,"dose: 100.0 mg/kg/injection, schedule: Q04DX002 (ip), vehicle: Klucel (hydroxypropylcellulose) (HPC)",98 % of control
same,T/C,[8],91 % of control
same,T/C,"dose: 200.0 mg/kg/injection, schedule: Q04DX002 (ip), vehicle: Klucel (hydroxypropylcellulose) (HPC)",95 % of control
same,T/C,"dose: 400.0 mg/kg/injection, schedule: Q01DX009 (ip), vehicle: Klucel (hydroxypropylcellulose) (HPC)",87 % of control
same,T/C,"dose: 400.0 mg/kg/injection, schedule: Q04DX002 (ip), vehicle: Klucel (hydroxypropylcellulose) (HPC)",113 % of control
S=C1CCNCC1,T/C,"dose: 100.0 mg/kg/injection, schedule: Q04DX003 (ip), vehicle: saline",88 % of control
